Here are results for two compounds from patent US11427588B2, “Compositions and methods for treating neurodegenerative diseases and cardiomyopathy” (THE REGENTS OF THE UNIVERSITY OF CALIFORNIA, priority 2013, dated 2022).

The structures appear in SMILES notation. Several values for one entry are separate records, joined by “and”; a condition that tells them apart may be missing. Identical values can stand only once. Entries after “also recorded” stand apart in the source; their conditions may differ.

The test system of assay [1] is PINK1^G309D mutant expressing cells. Briefly: Parkin S65 phosphorylation after CCCP, phospho specific antibodies after immuno-precipitating Parkin. The assay is classed as cell-based. Conditions: S65 phosphosite. How it is done:
(§1) Parkin phosphorylation and mitochondrial translocation assay: HeLa cells were grown in DMEM supplemented with 10% FBS. Log phase cells were plated in 24 well plates with glass coverslips (Mattek) pretreated with fibronectin. Cells were pretreated with 50 μM of the indicated compound, followed by transfection with MitoGFP, mCherry Parkin, and full length PINK1FLAG3 in a 1:4:2 ratio using Fugene 6 (Promega). Fields of cells were selected by expression of MitoGFP (6 fields/well-3 wells/condition) and imaged at five-minute intervals following depolarization with 5 μM CCCP. Quantification was performed according to published protocols^3 and by creation of a Matlab based script.
To test the PINK1-dependency of our findings, we assayed PINK1 activity by using phospho specific antibodies raised against Parkin's PINK1-specific S65 phosphosite^21 after immuno-precipitating Parkin. […] To test whether kinetin stimulated Parkin localization was due to reversible binding of kinetin to PINK1, we treated the cells with fresh medium for 96 hours before performing a new recruitment assay. Similar recruitment rates were observed following the washout (FIG. 2F). […] We followed previously published methods to calculate the percentage of GFP labeled mitochondria with mCherryParkin associated. […]

Another assay deals with PINK1−/− mice. Briefly: Induced myocardial infarction model. Format: in vivo. As to the method: Utilizing mice dosed with kinetin, adenine or vehicle for two weeks, we induced myocardial infarction by ligating the left anterior descending artery at the level of the left atrial appendage (Wang et al., 2006) or sham surgery. Following infarct for 24 or 72 hours, we sacrificed the mice and analyzed the heart by TUNEL staining as cardiomyocytes are susceptible to cell death following infarct. […] These experiments replicate our results in neurons in which kinetin treatment will block apoptosis in response to a number of cellular stressors.

Another assay concerns PINK1wt mice. In words: Heart stress model (trans-aortic banding, angiotensin II). Format: in vivo. The note with it: two weeks dosing, TAB or Angiotensin II; for pathological hypertrophy: 14 days. An excerpt: Stress on the heart also induces pathological hypertrophy and increased apoptosis, and serves as a good model for heart disease. We utilized trans-aortic banding (TAB) and treatment with angiotensin II to increase pressure in the heart and a model for heart attack by induced myocardial infarction. We treated mice as above with kinetin as well as adenine and vehicle controls for two weeks. We then increased pressure in the heart by performing surgery to partially occlude the aorta (TAB) or sham operation. Additionally we directly injected of a bolus of Angiotensin II or saline into the heart (Billia et al., 2011) to increase blood pressure. […] As the depletion of PINK1 leads to more pathological hypertrophy and increased apoptosis, by amplifying PINK1 activity these characteristics of heart failure will be further reduced.

The next assay concerns the target PINK1^wt (Homo sapiens, UniProt Q9BXM7). In words: Parkin mitochondrial translocation assay in HeLa cells after CCCP depolarization. Conditions: for 50% Recruitment Times (R50) mCherry Parkin to depolarized mitochondria: HeLa cells with PINK1^wt, mCherryParkin, mitoGFP, 48 hours, 25 μM; for mean change in co-localization: PINK1^wt expressing cells, algorithm quantified. The assay is classed as cell-based. Further details: transfection with MitoGFP, mCherry Parkin, and full length PINK1FLAG3 in a 1:4:2 ratio; expressed in transfected cells; host or cells: HeLa. How it is done:
as §1
(§2) Our ability to enhance PINK1 activity in-vitro using KTP led us to investigate means by which to achieve enhanced activity in cells expressing PINK1. […] We treated cells with either kinetin or adenine (FIG. 2A) and measured Parkin localization following mitochondrial depolarization with CCCP (FIG. 2B). HeLa cells, which have low levels of endogenous PINK1 and PARKIN, were transfected with wildtype or PINK1^G309D, mCherryParkin, and mitoGFP. After 48 hours of incubation with 25 μM adenine, kinetin or equivalent DMSO, we imaged CCCP-mediated depolarization of mitochondria (FIGS. 2C, 2D) and calculated the percentage of GFP labelled mitochondria with mCherryParkin associated (FIG. 2E). In line with previous reports^3, transfection of PINK1^G309D slowed the 50% recruitment (R50) time of mCherryParkin to depolarized mitochondria (23±2 min vs 15±1 min R50) (FIGS. 2C-2E Table.2). […] Using an algorithm to accurately quantify the time dependent change in co-localization, we calculated that PINK1^wt expressing cells achieved a mean change in co-localization of 0.112 with DMSO or adenine and 0.13 with kinetin treatment (FIGS. 7A-7F); PINK1^G309D expressing cells treated with DMSO or adenine achieved delta co-localization of 0.076, but upon addition of kinetin returned to near-PINK1-wildtype levels (0.124).
(§3) To test the PINK1-dependency of our findings, we assayed PINK1 activity by using phospho specific antibodies raised against Parkin's PINK1-specific S65 phosphosite^21 after immuno-precipitating Parkin. […] To test whether kinetin stimulated Parkin localization was due to reversible binding of kinetin to PINK1, we treated the cells with fresh medium for 96 hours before performing a new recruitment assay. Similar recruitment rates were observed following the washout (FIG. 2F). […] We followed previously published methods to calculate the percentage of GFP labeled mitochondria with mCherryParkin associated. Transfection of G309DPINK11-581 slowed the rate of mCherryParkin recruitment (23+2 min vs 15+1 min R50) as per reported results. The addition of kinetin, but not adenine, increased the rate of mCherryParkin recruitment in wt cells from 15+1 to 10+2 min and G309D cells from 23+2 to 15+2 min. We then incubated the cells with kinetin for 2 days, washed the cells with fresh medium then performed the recruitment assay and saw the same increase in the rate of recruitment. […] We developed an algorithm to calculate the change in co-localization. The wtPINK1 cells achieved a mean change in co-localization of 0.11 with DMSO, adenine or kinetin treatment. G309DPINK1 expressing cells treated with DMSO or Adenine, achieved delta co-localization of 0.075 but upon addition of kinetin indicating rescue to the wt level (0.11) (P>0.05).

In a further assay the target is PINK1^G309D (Homo sapiens, UniProt Q9BXM7, G309D). The description is as above. Further details: transfection with MitoGFP, mCherry Parkin, and full length PINK1FLAG3 in a 1:4:2 ratio; expressed in transfected cells; host or cells: HeLa. Conditions: for 50% Recruitment Times (R50) mCherry Parkin to depolarized mitochondria: HeLa cells with PINK1^G309D, mCherryParkin, mitoGFP, 48 hours, 25 μM; for delta co-localization: PINK1^G309D expressing cells, algorithm quantified. Format: cell-based. As to the method:
as §1, §2, §3

Chain of PINK1^wt (Q9BXM7 78-581): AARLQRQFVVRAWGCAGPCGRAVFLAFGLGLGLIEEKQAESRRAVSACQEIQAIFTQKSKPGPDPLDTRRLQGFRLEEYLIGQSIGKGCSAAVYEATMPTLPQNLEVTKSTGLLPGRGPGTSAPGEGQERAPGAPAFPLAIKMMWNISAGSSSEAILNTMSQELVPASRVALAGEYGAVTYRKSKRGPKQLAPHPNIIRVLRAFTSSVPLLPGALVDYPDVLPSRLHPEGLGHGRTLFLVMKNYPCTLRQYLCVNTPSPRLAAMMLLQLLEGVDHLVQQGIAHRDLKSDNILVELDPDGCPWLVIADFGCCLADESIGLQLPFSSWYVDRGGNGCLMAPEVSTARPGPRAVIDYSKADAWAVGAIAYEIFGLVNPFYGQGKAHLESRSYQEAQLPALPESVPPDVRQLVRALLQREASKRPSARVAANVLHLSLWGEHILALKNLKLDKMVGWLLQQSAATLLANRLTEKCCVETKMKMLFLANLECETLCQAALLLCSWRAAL
Chain of PINK1^G309D (Q9BXM7 78-581 G309D): as the sequence (Q9BXM7 78-581) above, with G232D counted along it

On to `Nc1ncnc2nc[nH]c12` [adenine, reference compound], for which the “phosphorylation levels of Parkin” value in assay [1] is listed as “not”. Besides, the “scar size and level of collagen deposition” value with PINK1−/− mice was “not”. Also, the pathological hypertrophy entry with PINK1wt mice was “not”. Also, on PINK1^wt, the “50% Recruitment Times (R50) mCherry Parkin to depolarized mitochondria” value (“50% Recruitment Times” below) is on record as 15 ± 1 min; the “mean change in co-localization” value was 0.112 and 0.11. On PINK1^G309D, the “50% Recruitment Times” value worked out at 23 ± 2 min and the delta co-localization is reported as 0.076. The delta co-localization on PINK1^G309D (listed as Adenine) is given as 0.075.
Regarding `c1coc(CNc2ncnc3[nH]cnc23)c1` [kinetin], the “phosphorylation levels of Parkin” value in assay [1] is given as “significantly increased; also recorded: Robust increase”. The “scar size and level of collagen deposition” value in the assay on PINK1−/− mice is given as “not”. For the same compound, in the assay with PINK1wt mice, the “total number of TUNEL positive cells, left ventricle” value was “reduced the total number of TUNEL positive cells” and the pathological hypertrophy entry is on record as “reduces the pathological hypertrophy”. At PINK1^wt, the “50% Recruitment Times” value was 10±2 min and 10+2 min; the “mean change in co-localization” value is 0.13 and 0.11. At PINK1^G309D, the “50% Recruitment Times” value was 15±2 min and 15+2 min; the delta co-localization was 0.124 and 0.11.
